Test results taken from BindingDB's records for patent US20250313563 (The Broad Institute, 2025).
“And” between values parts separate entries of the source, which are not always exact repeats. Equal values may be shown once.

Legend:
[1] = molecular target: Glycogen synthase kinase-3 alpha (Homo sapiens, UniProt P49840); assay: TR-FRET Assay
Procedure, shortened: (§1)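 Compound was preincubated 30 min in assay buffer before the kinase reaction, which was quenched with EDTA. Phosphorylation was detected by TR-FRET after adding a solution of 40 nM streptavidin-d2 and 2 nM Tb-labelled anti-pSer641 antibody.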

[2] = molecular target: Glycogen synthase kinase-3 beta (Homo sapiens, UniProt P49841); assay: TR-FRET Assay
Glycogen synthase kinase-3 beta, sequence (P49841 whole entry): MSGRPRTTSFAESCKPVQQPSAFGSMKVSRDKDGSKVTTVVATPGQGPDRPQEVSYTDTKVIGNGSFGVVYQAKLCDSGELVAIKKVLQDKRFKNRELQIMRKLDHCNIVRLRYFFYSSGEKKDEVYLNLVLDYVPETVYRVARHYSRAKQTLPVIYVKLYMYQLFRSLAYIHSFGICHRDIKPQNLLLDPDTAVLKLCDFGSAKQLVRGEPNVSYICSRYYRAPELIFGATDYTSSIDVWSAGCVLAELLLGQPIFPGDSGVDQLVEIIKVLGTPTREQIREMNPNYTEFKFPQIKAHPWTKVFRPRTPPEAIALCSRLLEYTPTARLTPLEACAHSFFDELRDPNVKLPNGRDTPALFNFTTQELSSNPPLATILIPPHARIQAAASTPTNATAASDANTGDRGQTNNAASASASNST
Procedure, shortened: as §1

Glycogen synthase kinase-3 alpha, sequence (P49840 whole entry): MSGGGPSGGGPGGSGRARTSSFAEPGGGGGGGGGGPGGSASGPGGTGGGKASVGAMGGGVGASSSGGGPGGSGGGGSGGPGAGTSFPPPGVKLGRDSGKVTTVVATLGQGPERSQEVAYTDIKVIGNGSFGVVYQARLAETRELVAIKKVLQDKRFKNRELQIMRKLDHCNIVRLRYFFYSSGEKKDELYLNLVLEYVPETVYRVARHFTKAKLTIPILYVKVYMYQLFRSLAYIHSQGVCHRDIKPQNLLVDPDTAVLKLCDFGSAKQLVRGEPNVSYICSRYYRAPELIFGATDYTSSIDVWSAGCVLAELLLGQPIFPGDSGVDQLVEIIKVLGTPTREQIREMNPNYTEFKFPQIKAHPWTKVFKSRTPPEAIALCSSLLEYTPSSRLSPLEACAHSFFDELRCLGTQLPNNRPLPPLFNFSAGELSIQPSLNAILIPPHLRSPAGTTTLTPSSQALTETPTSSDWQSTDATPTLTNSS

Compound	IC50 [1]	IC50 [2]
CC[C@@]1(c2cccc(-c3cc(C(F)(F)F)nn3C)c2)C2=CN=NC2NC2=C1C(=O)NC(C)(C)C2 (stereo partly specified) [US20250313563, Compound 952018]	0.1 to 1 µM	1 to 5 µM
CC[C@]1(c2cccc(Oc3cncnc3)c2)C2=CN=NC2NC2=C1C(=O)CC(C)(C)C2 (stereo partly specified) [US20250313563, Compound 945933]	< 0.1 µM	< 0.1 µM
CC[C@@H]1C[C@]2(CCO1)C1=C(N=NC1)NC1=C2C(=O)CC(C)(C)C1 [US20250313563, Compound 924715]	< 0.1 µM	0.1 to 1 µM
CC[C@]1(c2cccc(S(C)(=O)=O)c2)C2=CN=NC2NC2=C1C(=O)NC(C)(C)C2 (stereo partly specified) [US20250313563, Compound 945621]	1 to 5 µM	> 5 µM
CC[C@@]1(c2cccc(-c3cnn(C)c3C)c2)C2=C(CC(C)(C)NC2=O)NC2N=NC(C(F)(F)F)=C21 (stereo partly specified) [US20250313563, Compound 947819]	< 0.1 µM	< 0.1 µM
CC(C)(C)CC1=C2C(N=N1)NC1=C(C(=O)CC(C)(C)C1)C21CCc2c(F)cccc21 (stereo unspecified) [US20250313563, Compound 789524]	0.1 to 1 µM	< 0.1 µM
CC[C@]1(c2cccc(Cc3ncccc3C(F)(F)F)c2)C2=CN=NC2NC2=C1C(=O)CC(C)(C)C2 (stereo partly specified) [US20250313563, Compound 947664]	< 0.1 µM	0.1 to 1 µM
Cc1cnc2c(S(=O)(=O)N3CCC4(CC3)C3=C(N=NC3)NC3=C4C(=O)CC(C)(C)C3)cccc2c1 [US20250313563, Compound 947614]	< 0.1 µM	< 0.1 µM
CC[C@]1(c2cccc(-c3ccncc3)c2)C2=C(CC(C)(C)CC2=O)NC2N=NC(C(F)(F)F)=C21 (stereo partly specified) [US20250313563, Compound 917293]	< 0.1 µM	< 0.1 µM
CC[C@]1(c2cccc(N(C)c3cccnn3)c2)C2=CN=NC2NC2=C1C(=O)CC(C)(C)C2 (stereo partly specified) [US20250313563, Compound 911975]	0.1 to 1 µM	1 to 5 µM
CCC1(c2cccc(-c3cc(C)nn3C)c2)C2=CN=NC2NC2=C1C(=O)CC(C)(C)C2 (stereo unspecified) [US20250313563, Compound 929402]	< 0.1 µM	0.1 to 1 µM
CC[C@@]1(c2ccccc2)C2=CN=NC2NC2=C1C(=O)C[C@@](C)(C(F)(F)F)C2 (stereo partly specified) [US20250313563, Compound 819569]	0.1 to 1 µM	1 to 5 µM
CCC1(c2cccc(C(F)(F)F)c2)C2=CN=NC2NC2=C1C(=O)N(c1ccc(C)cc1)CC2 (stereo unspecified) [US20250313563, Compound 948241]	< 0.1 µM	0.1 to 1 µM
CC[C@]1(c2cccc(CN(C)c3ccc(C(F)(F)F)nc3)c2)C2=CN=NC2NC2=C1C(=O)CC(C)(C)C2 (stereo partly specified) [US20250313563, Compound 945484]	> 5 µM	> 5 µM
CC[C@@]1(c2cccc(-c3ccnc(C(F)F)c3)c2)C2=CN=NC2NC2=C1C(=O)CC(C)(C)C2 (stereo partly specified) [US20250313563, Compound 943919]	< 0.1 µM	0.1 to 1 µM
CC[C@@]1(c2cccc(C(F)(F)F)c2)C2=CN=NC2NC2=C1C(=O)N(c1ccc(OC)cc1)CC2 (stereo partly specified) [US20250313563, Compound 948227]	1 to 5 µM	> 5 µM
CC[C@]1(c2cccc(-c3cc(C4CCCC4)nn3C)c2)C2=CN=NC2NC2=C1C(=O)NC(C)(C)C2 (stereo partly specified) [US20250313563, Compound 949509]	> 5 µM	> 5 µM
CC1(C(F)(F)F)CC(=O)C2=C(C1)NC1=C(CN=N1)C21CCOCC1 (stereo unspecified) [US20250313563, Compound 901458]	0.1 to 1 µM	0.1 to 1 µM
CC[C@@]1(c2cccc(-c3ccncc3F)c2)C2=C(CC(C)(C)NC2=O)NC2N=NC(C(F)F)=C21 (stereo partly specified) [US20250313563, Compound 951599]	0.1 to 1 µM	0.1 to 1 µM
CC[C@@]1(c2cccc(C3CC3)c2)C2=CN=NC2NC2=C1C(=O)NC(C)(C)C2 (stereo partly specified) [US20250313563, Compound 950828]	< 0.1 µM and 1 to 5 µM	> 5 µM

Other lines, results leading:

IC50 [1]	IC50 [2]	Compound
< 0.1 µM	0.1 to 1 µM	CC[C@@]1(c2cccc(-c3cnn(CCc4ccccc4)c3)c2)C2=CN=NC2NC2=C1C(=O)NC(C)(C)C2 (stereo partly specified) [US20250313563, Compound 952017]
> 5 µM	> 5 µM	CC[C@@]1(c2cccc(CN(C)c3ccnc(C)c3)c2)C2=CN=NC2NC2=C1C(=O)CC(C)(C)C2 (stereo partly specified) [US20250313563, Compound 932665]
< 0.1 µM	< 0.1 µM	CC[C@]1(c2cccc(N3CCOCC3)c2)C2=C(CC(C)(C)CC2=O)NC2N=NC(C)=C21 (stereo partly specified) [US20250313563, Compound 889581]
0.1 to 1 µM	1 to 5 µM	Cn1cc(S(=O)(=O)N2CC[C@@]3(C2)C2=C(N=NC2)NC2=C3C(=O)CC(C)(C)C2)cn1 [US20250313563, Compound 951725]
0.1 to 1 µM	1 to 5 µM	CC[C@@H]1C[C@@]2(CO1)C1=C(N=NC1)NC1=C2C(=O)CC(C)(C)C1 [US20250313563, Compound 913215]
< 0.1 µM	< 0.1 µM	CCC1(c2cccc(N(C)C(O)C3CC3)c2)C2=CN=NC2NC2=C1C(=O)CC(C)(C)C2 (stereo unspecified) [US20250313563, Compound 912067]
0.1 to 1 µM	0.1 to 1 µM	CC[C@]1(c2cccc(-c3cn(C)nc3C)c2)C2=C(CC(C)(C)NC2=O)NC2N=NC(C(F)F)=C21 (stereo partly specified) [US20250313563, Compound 950490]
1 to 5 µM	> 5 µM	CC[C@]1(c2ccccc2)C2=CN=NC2NC2=C1C(=O)[C@H](C)C[C@H]2C (stereo partly specified) [US20250313563, Compound 865199]
< 0.1 µM	0.1 to 1 µM	CCCc1cc(-c2cccc(C3(CC)C4=CN=NC4NC4=C3C(=O)CC(C)(C)C4)c2)ccn1 (stereo unspecified) [US20250313563, Compound 945467]
< 0.1 µM and 0.1 to 1 µM	< 0.1 µM and 1 to 5 µM	Cn1cc(S(=O)(=O)N2CCC3(CC2)C2=C(N=NC2)NC2=C3C(=O)CC(C)(C)C2)cn1 [US20250313563, Compound 901467]
0.1 to 1 µM	> 5 µM	CCC1(c2ccc(C)cc2)C2=C(N=NC2)NC2=C1C(=O)CC(C)(C)C2 (stereo unspecified) [US20250313563, Compound 785739]
0.1 to 1 µM	> 5 µM	CC[C@@]1(c2cccc(C(F)(F)F)c2)C2=CN=NC2NC2=C1C(=O)N(c1cnn(C)c1)CC2 (stereo partly specified) [US20250313563, Compound 949271]
< 0.1 µM	0.1 to 1 µM	CC[C@@]1(c2cccc(N(C)c3ccc(C(F)(F)F)nc3)c2)C2=CN=NC2NC2=C1C(=O)CC(C)(C)C2 (stereo partly specified) [US20250313563, Compound 945474]
< 0.1 µM	0.1 to 1 µM	CCc1cc(-c2cccc(C3(CC)C4=CN=NC4NC4=C3C(=O)CC(C)(C)C4)c2)ccn1 (stereo unspecified) [US20250313563, Compound 947493]
< 0.1 µM	< 0.1 µM	CCC1(c2cccc(C(F)(F)F)c2)C2=CN=NC2NC2=C1C(=O)CC(C)(C)C2 (stereo unspecified) [US20250313563, Compound 785762]
0.1 to 1 µM	0.1 to 1 µM	CC[C@]1(c2cccc(-c3cnn(C)c3)c2)C2=CN=NC2NC2=C1C(=O)CC(C)(C)C2 (stereo partly specified) [US20250313563, Compound 819577]
> 5 µM	> 5 µM	CC[C@@]1(c2cccc(Br)c2)C2=CN=NC2NC2=C1C(=O)[C@H](F)C(C)(C)C2 (stereo partly specified) [US20250313563, Compound 835313]
< 0.1 µM	< 0.1 µM	CC[C@@]1(c2cccc(-c3cnn(C)c3C)c2)C2=C(CC(C)(C)NC2=O)NC2N=NC(C)=C21 (stereo partly specified) [US20250313563, Compound 945731]
